Here are results for six compounds from US11648254B2 (Kumquat Biosciences Inc., priority 2021, dated 2023).

Usually IC50 stands for the concentration that inhibits the measured activity by half.

Data set [1] deals with SOS1 (Homo sapiens (Human), UniProt Q07889). Put plainly: Ras-SOS interaction assay (HTRF). The format is biochemical. For orientation: Time-resolved FRET reads energy transfer from a long-lived donor to a nearby acceptor.
Data set [2] relates to NCI-H1975 cells (EGFR T790M L858R). Put plainly: EGFR-SOS cellular inhibition assay (CellTiter-Glo, 3D). As to conditions: Homo sapiens. The format is cell-based. On the technique in general: ATP-based viability assays read luminescence as a measure of living cells.
A short description of data set [3]: In vitro plasma protein binding (PPB). The format is in vitro ADME. As to conditions: percentage of free/unbound compound.
Data set [4] has as its system MIA PaCa-2 cells (K-Ras G12C). The experiment in a line: Ras-SOS cellular growth inhibition assay (CellTiter-Glo, 3D). It counts as cell-based. As to conditions: Homo sapiens. Put shortly: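 MIA PaCa-2 cells grown in ultra-low-attachment plates (3D) in DMEM/Ham's F12 with 10% FCS and 2.5% horse serum, treated the day after seeding with a 9-point 3-fold compound series for about 5 days. Viability by CellTiter-Glo luminescence; IC50 from four-parameter fit.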

The mark [5] stands for this setting: K-RasG13D utilized, read-out: IC50 inhibition of SOS.
The mark [6] stands for this setting: K-RasG13D, read-out: IC50 value against SOS1.
[7] abbreviates: 120 h, NCI-H1975, 3D proliferation, about 5 days, read-out: Bio-Cell-Prolif-3D (H1975 IC50).
Where [8] appears, read: NCI-H1975, EGFR T790M L858R, read-out: IC50 in inhibiting growth of NCI-H1975 cell line.
Where [9] appears, read: MIA PaCa-2, 120 h, MIA PaCa-2, 3D proliferation, about 5 days, read-out: Bio-Cell-Prolif-3D (MiaPaca2 IC50).
Where [10] appears, read: MIA PaCa-2, MIA PaCa-2, read-out: IC50 in inhibiting MIA PaCa-2 cell growth.

Where two headings read alike, the source gives them in different places.

SOS1, sequence (Q07889 564-1049): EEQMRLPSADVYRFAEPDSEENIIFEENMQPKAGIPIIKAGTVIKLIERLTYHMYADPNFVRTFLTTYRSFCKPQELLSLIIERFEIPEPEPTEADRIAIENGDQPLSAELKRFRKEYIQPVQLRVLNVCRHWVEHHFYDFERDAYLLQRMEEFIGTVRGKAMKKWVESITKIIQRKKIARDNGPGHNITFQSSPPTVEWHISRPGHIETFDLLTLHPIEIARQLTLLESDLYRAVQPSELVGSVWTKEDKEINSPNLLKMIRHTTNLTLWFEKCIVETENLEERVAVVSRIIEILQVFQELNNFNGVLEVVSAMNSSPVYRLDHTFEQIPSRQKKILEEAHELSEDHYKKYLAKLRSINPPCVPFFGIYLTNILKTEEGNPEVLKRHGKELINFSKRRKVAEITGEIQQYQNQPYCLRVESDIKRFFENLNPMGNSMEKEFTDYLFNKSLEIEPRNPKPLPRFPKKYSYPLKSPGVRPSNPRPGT

As for `COc1nc2nc(C)nc(N[C@H](C)c3cccc(C(F)(F)F)c3F)c2cc1N1CCN(C(C)C)CC1` [Compound 211, (R)-N-(1-(2-fluoro-3-(trifluoromethyl)phenyl)ethyl)-6-(4-isopropylpiperazin-1-yl)-7-methoxy-2-methylpyrido[2,3-d]pyrimidin-4-amine], the concentration for half-maximal inhibition (IC50) in data set [1] (setting [5]) is under 100 nM; in data set [1] (setting [6]) it was under 50 nM; in data set [2] (setting [7]), at most 1000 nM; in data set [2] (setting [8]) it was under 500 nM; in data set [4] (setting [9]), at most 1000 nM; in data set [4] (setting [10]) it was under 500 nM. For the same compound, the “DMPK-invitro-PPB (Mouse Unbound) [%]” value in data set [3] is on record as 0.41%.

Take `COc1nc2nc(C)nc(N[C@H](C)c3cccc(C(F)(F)F)c3C)c2cc1C1CCN(C(C)C)CC1` [Compound 236, (R)-6-(1-isopropylpiperidin-4-yl)-7-methoxy-2-methyl-N-(1-(2-methyl-3-(trifluoromethyl)phenyl)ethyl)pyrido [2,3-d]pyrimidin-4-amine]: the IC50 in data set [1] (setting [5]) was under 100 nM; in data set [1] (setting [6]), under 50 nM; in data set [2] (setting [7]) it was at most 1000 nM; in data set [2] (setting [8]) it was under 500 nM; in data set [4] (setting [9]) it was at most 1000 nM; in data set [4] (setting [10]), under 500 nM. Besides, in data set [3], the “DMPK-invitro-PPB (Mouse Unbound) [%]” value is recorded as 0.11%.

Take `COc1nc2ncnc(N[C@H](C)c3cccc(C(C)(F)F)c3F)c2cc1C1CCS(=O)(=O)CC1` [Compound 267, (R)-4-(4-((1-(3-(1,1-difluoroethyl)-2-fluorophenyl)ethyl)amino)-7-methoxypyrido[2,3-d]pyrimidin-6-yl)tetrahydro-2H-thiopyran 1,1-dioxide]: the IC50 was under 100 nM in data set [1] (setting [5]); under 50 nM in data set [1] (setting [6]); at most 1000 nM in data set [2] (setting [7]); under 500 nM in data set [2] (setting [8]); at most 1000 nM in data set [4] (setting [9]); under 500 nM in data set [4] (setting [10]). In data set [3], the “DMPK-invitro-PPB (Mouse Unbound) [%]” value is 5.6%.

Take `COc1nc2ncnc(N[C@H](C)c3cccc(C(F)(F)C(C)(C)O)c3F)c2cc1N1CCN(C(C)C)CC1` [Compound 273, (R)-1,1-difluoro-1-(2-fluoro-3-(1-((6-(4-isopropylpiperazin-1-yl)-7-methoxypyrido[2,3-d]pyrimidin-4-yl)amino)ethyl)phenyl)-2-methylpropan-2-ol]: the IC50 was under 100 nM in data set [1] (setting [5]); under 50 nM in data set [1] (setting [6]); at most 1000 nM in data set [2] (setting [7]); under 500 nM in data set [2] (setting [8]); at most 1000 nM in data set [4] (setting [9]); under 500 nM in data set [4] (setting [10]). In addition, the “DMPK-invitro-PPB (Mouse Unbound) [%]” value in data set [3] turned out to be 12.22%.

In the case of `COc1nc2nc(C)nc(N[C@H](C)c3cccc(C(F)(F)F)c3F)c2cc1C1CCN(C(C)C)CC1` [Compound 287, (R)-N-(1-(2-fluoro-3-(trifluoromethyl)phenyl)ethyl)-6-(1-isopropylpiperidin-4-yl)-7-methoxy-2-methylpyrido[2,3-d]pyrimidin-4-amine], the half-maximal inhibitory concentration (IC50) in data set [1] (setting [5]) was under 100 nM; in data set [1] (setting [6]), under 50 nM; in data set [2] (setting [7]), at most 1000 nM; in data set [2] (setting [8]), under 500 nM; in data set [4] (setting [9]) it was at most 1000 nM; in data set [4] (setting [10]), under 500 nM. Also, the “DMPK-invitro-PPB (Mouse Unbound) [%]” value in data set [3] is recorded as 0.39%.

With `COc1nc2nc(C)nc(N[C@H](C)c3cccc(C(F)(F)F)c3F)c2cc1N1CCS(=O)(=O)CC1` [Compound 305, (R)-4-(4-((1-(2-fluoro-3-(trifluoromethyl)phenyl)ethyl)amino)-7-methoxy-2-methylpyrido[2,3-d]pyrimidin-6-yl)thiomorpholine 1,1-dioxide], the IC50 in data set [1] (setting [5]) is under 100 nM; in data set [1] (setting [6]), under 50 nM; in data set [2] (setting [7]) it was at most 1000 nM; in data set [2] (setting [8]), under 500 nM; in data set [4] (setting [9]) it was at most 1000 nM; in data set [4] (setting [10]), under 500 nM. The “DMPK-invitro-PPB (Mouse Unbound) [%]” value in data set [3] stood at 1.24%.
